Measurements: ChEMBL document CHEMBL3102777, “Binding ability of a thymine-functionalized oligolysine towards nucleic acids” (Bioorg Med Chem, 2014)
The source made the active and inactive calls. The calls are words filed in the database; no cut-off is given here. Residues, ends and D or L forms follow the SMILES beside them. *: point of attachment. Acetyl(thymin-1-yl) = Cc1cn(CC(=O)*)c(=O)[nH]c1=O

Key:
[1] = Half life in 94% human serum at 14 uM; format: ADME
[2] = Binding affinity to […] RNA (unknown origin) by surface plasmon resonance assay
[3] = Binding affinity to poly rA RNA (unknown origin) by surface plasmon resonance assay
[4] = Binding affinity to poly rA RNA (unknown origin) at 2:1 compound to RNA ratio assessed as melting temperature by circular dichroism analysis
[5] = Binding affinity to […] RNA (unknown origin) at 12.8 uM assessed as melting temperature by UV analysis
[6] = Binding affinity to dA12 DNA (unknown origin) at 10 uM assessed as melting temperature by UV analysis
[7] = Binding affinity to poly rA RNA (unknown origin) at 2:1 compound to RNA ratio by circular dichroism analysis
[8] = Binding affinity to poly rA RNA (unknown origin) at 24 nM by circular dichroism analysis
[9] = Binding affinity to […] RNA (unknown origin) at 2:1 compound to RNA ratio by circular dichroism analysis
[10] = Binding affinity to […] RNA (unknown origin) at 1.5:1 compound to RNA ratio by circular dichroism analysis
[11] = Binding affinity to dA12 DNA (unknown origin) at 2.5:1 compound to DNA ratio by circular dichroism analysis
[12] = Binding affinity to dT12 DNA (unknown origin) at 24 nM by circular dichroism analysis
[13] = Binding affinity to dA12 DNA (unknown origin) at 24 nM by circular dichroism analysis

half-life at 14 µM [1]: 45 min
Activity [2]: Active
Activity [3]: Active
Tm [4]: 35 °C
Tm [5]: 27 °C
Tm [6]: 25 °C
Activity [7]: Active
Activity [8]: Active
Activity [9]: Active
Activity [10]: Active
Activity [11]: Active
Activity [12]: Active
Activity [13]: Active
SMILES: Cc1cn(CC(=O)NCCCC[C@H](NC(=O)[C@H](CCCCN)NC(=O)[C@H](CCCCNC(=O)Cn2cc(C)c(=O)[nH]c2=O)NC(=O)[C@H](CCCCN)NC(=O)[C@H](CCCCNC(=O)Cn2cc(C)c(=O)[nH]c2=O)NC(=O)[C@H](CCCCN)NC(=O)[C@H](CCCCNC(=O)Cn2cc(C)c(=O)[nH]c2=O)NC(=O)[C@H](CCCCN)NC(=O)[C@H](CCCCNC(=O)Cn2cc(C)c(=O)[nH]c2=O)NC(=O)[C@H](CCCCN)NC(=O)[C@@H](N)CCCCNC(=O)Cn2cc(C)c(=O)[nH]c2=O)C(=O)N[C@@H](CCCCN)C(N)=O)c(=O)[nH]c1=O (H-K(Acetyl(thymin-1-yl))KK(Acetyl(thymin-1-yl))KK(Acetyl(thymin-1-yl))KK(Acetyl(thymin-1-yl))KK(Acetyl(thymin-1-yl))KK(Acetyl(thymin-1-yl))K-NH2)
